What all share (experiment): NCI-60 cell line screen, 48 h
The subject of test [1] is A498 renal.
For test [2], the system named is CAKI-1 renal.
Test [3] relates to HT29 colon.
Test [4] deals with SF-268 CNS.
The subject of test [5] is SF-295 CNS.
Test [6] deals with SK-MEL-2 melanoma.
The test system of test [7] is SNB-19 CNS.
Test [8] concerns TK-10 renal.
The test system of test [9] is HL-60(TB) leukemia.
The subject of test [10] is MCF7 breast.

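Interpolation was linear, between the two tested concentrations surrounding the appropriate level; five concentrations were tested over 48 hours in 96-well plates. GI50 = concentration required for 50% inhibition of growth. TGI denotes the concentration required for complete inhibition of growth.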 Where only a bound is given, the exact number is not on record here.

Experimental findings from PubChem BioAssay (NCI) are described below.

For `CN(C)N=Nc1ccc(S(N)(=O)=O)cc1`, the TGI in test [1], in test [2], in test [3], in test [4], in [5] and in test [6] was greater than 100 µM each time. In addition, the TGI in test [7] and in test [8] was greater than 100 µM in each case.

On to `O=C(C(=CN1CCN(C(=O)c2ccco2)C1=S)C(=O)c1ccccc1)c1ccccc1`, for which the GI50 in [2] is 6.98 µM; in [9] it was 9.89 µM; in [3], 16.9 µM; in test [5], 11.1 µM; in test [6], 12.1 µM; in [7] it was 29.2 µM. In addition, in [8], the GI50 is 6.87 µM. Further, the TGI was 17.2 µM in [2]; 34.9 µM in test [9]; greater than 50 µM in test [3]; 33 µM in test [5]; 25.6 µM in test [6]; greater than 50 µM in test [7]. In [8], this compound gave a TGI of 22.1 µM.

Consider `O=C1/C(=C/c2ccc(C(F)(F)F)cc2)COc2ccc(O)c(O)c21`, for which the GI50 in [1] was 2.11 µM; in [2] it was 1.11 µM; in [9], 0.52 µM; in [4] it was 1.67 µM; in test [5] it was 3.15 µM; in test [6] it was 1.83 µM. Also, the GI50 was 1.48 µM in test [7] and 1.64 µM in test [8]. Besides, the TGI in test [1] was found to be 4.16 µM; in test [2] it was 2.38 µM; in [9] it was 3.06 µM; in [4], 3.83 µM; in test [5], 8.52 µM; in test [6] it was 3.99 µM. For the same compound, the results for the TGI in test [7] and in test [8] were 2.87 µM and 3.03 µM, respectively.

Turning to `CSc1nnc(C(C#N)C#N)nn1`, the TGI in [1], in test [2], in test [9], in test [3], in test [4] and in [5] was greater than 100 µM throughout. Further, the TGI in [7] and in test [8] was greater than 100 µM throughout.

Take `CC(=O)C1C(=O)C(=O)N(CCN2C(=O)C(=O)C(C(C)=O)C2=O)C1=O` (stereo not given): the TGI in test [1], in test [2], in test [3], in test [4], in test [5] and in test [6] was greater than 100 µM throughout. For the same compound, the TGI in [7] and in test [8] was greater than 100 µM throughout.

Turning to `N#CC1=C(N)OC2=C(CCOc3c2ccc2ccccc32)C1c1ccc(Br)cc1` (stereo not given), the GI50 in test [2] was 15.1 µM; in test [9] it was 17 µM; in [3], 36.7 µM; in test [10] it was 20.9 µM; in test [4], 27.8 µM; in test [5] it was 18.1 µM. Also, the GI50 was 77.7 µM in test [7] and 21.6 µM in [8]. Besides, the TGI in test [2] is 80.6 µM; in [9] it was 37.6 µM; in test [3], greater than 100 µM; in [10] it was 94.2 µM; in test [4] it was greater than 100 µM; in test [5], 83.8 µM. In addition, the figures for the TGI in [7] and in test [8] were greater than 100 µM and 61.6 µM, respectively.

Regarding `CCOC(=O)C1C(=O)CC(=O)C2CCCCC21` (stereo not given), the TGI in test [1], in [2], in [9], in test [4], in test [5] and in test [6] was greater than 100 µM throughout. Further, the TGI in test [7] and in test [8] was greater than 100 µM in each case.

For `COc1ccc2c(c1)[n+]([O-])c(-c1ccccc1Cl)c(N)[n+]2[O-]`, the TGI in test [1], in test [2], in test [9], in test [3], in [4] and in [5] was greater than 100 µM each time. The TGI in test [6] and in test [7] was greater than 100 µM throughout.

As for `CCN(CC)c1c(C)nnn1C1OC(COC(C)=O)C(OC(C)=O)C(OC(C)=O)C1OC(C)=O` (stereo not given), the TGI in test [1], in test [2], in [9], in test [3], in test [4] and in test [5] was greater than 100 µM in each case. For the same compound, the TGI in test [7] and in test [8] was greater than 100 µM each time.

`COc1cc(O)c(C(=O)/C=C/c2ccc(OC)c(OCc3ccccc3)c2)c(OC)c1`: the TGI in [2] was greater than 100 µM; in [9] it was greater than 100 µM; in test [3], greater than 100 µM; in test [5], 2.43 µM; in [6], greater than 100 µM; in test [7], greater than 100 µM. Moreover, in [8], the TGI is greater than 100 µM.

For `O=C(CCc1ccccc1)CC1OC(=O)C(Cl)=C1Cl` (stereo not given), the TGI in test [1] came to 66.2 µM; in test [2] it was 59.1 µM; in [3] it was 58.2 µM; in test [4], 79.9 µM; in test [5] it was 87.4 µM; in test [6], 36.1 µM. The TGI in [7] amounted to 38 µM; in test [8] it was 57.7 µM.

For `Cc1[nH]c2cc([N+](=O)[O-])ccc2c1[N+](=O)[O-]`, the TGI is 50.4 µM in test [1]; 47.1 µM in test [2]; 55.1 µM in [9]; 97 µM in [3]; greater than 100 µM in test [4]; 48.8 µM in test [5]. Moreover, the TGI was 31 µM in test [6], 56.5 µM in [7] and 75.8 µM in [8].

`Cc1ccc(S(=O)(=O)NNS(C)(=O)=O)cc1`: the TGI in test [2], in [3], in test [4], in [5], in [6] and in test [7] was greater than 100 µM each time. Besides, the TGI in [8] was greater than 100 µM.

Consider `N#Cc1ccc(C2SCc3nc4ccccc4n32)cc1` (stereo not given), for which the TGI in [1], in test [2], in test [9], in test [4], in test [5] and in test [6] was greater than 100 µM throughout. Besides, the TGI in test [7] and in [8] was greater than 100 µM throughout.

Regarding `CCN(CC)C(=S)SS(C)(=O)=O`, the TGI in [2] is 57.1 µM; in test [9], 26.6 µM; in test [3] it was 31 µM; in test [5], 98 µM; in [6] it was 33.2 µM; in test [7], 58.4 µM. Moreover, the TGI in test [8] stood at 32.2 µM.

Turning to `COC(=O)c1cc2cc(/C=C3/SC(=S)N(N(C(C)=O)C(C)=O)C3=O)oc2n1Cc1ccccc1`, the GI50 in test [2] was 14.2 µM; in test [3] it was 37.4 µM; in test [10], 34.1 µM; in test [4], 48.2 µM; in test [5] it was 13.2 µM; in test [6], 40.3 µM. Also, the GI50 is 27.3 µM in test [7] and 17.4 µM in test [8]. For the same compound, the TGI in test [2] is 40.8 µM; in [3], greater than 100 µM; in [10], greater than 100 µM; in test [4], greater than 100 µM; in test [5], 52.4 µM; in test [6] it was greater than 100 µM. The TGI in [7] was greater than 100 µM; in [8], 35.1 µM.

For the compound `N#CC(/C(CCCC(=O)Nc1cccc([N+](=O)[O-])c1)=N\NC(=O)c1c(O)ccc2ccccc12)c1nc2ccccc2s1` (stereo not given), the TGI in test [1] is greater than 100 µM; in test [2], greater than 100 µM; in test [9] it was 24.1 µM; in test [3] it was greater than 100 µM; in [4] it was greater than 100 µM; in test [5] it was greater than 100 µM. For the same compound, the TGI in [6] and in test [7] was greater than 100 µM each time.

On to `COc1ccc(C(=O)C(C(=O)C(=O)NCCCNC(=O)C(=O)C(C(=O)c2ccc(OC)cc2)c2ccc(OC)cc2)c2ccc(OC)cc2)cc1` (stereo not given), for which the TGI in [9], in test [3], in [4], in [5], in [6] and in test [7] was greater than 100 µM in each case. The compound further showed a TGI in test [8] greater than 100 µM.

For `COC1/C(=C\C(C)=O)c2ccccc2N1C(C)=O` (stereo not given), the TGI in test [1], in test [2], in test [9], in test [3], in test [5] and in test [6] was greater than 100 µM each time. In test [7], this compound had a TGI greater than 100 µM.

Consider `Cc1ccc(S(=O)(=O)C2CC2(Cl)Cl)cc1` (stereo not given), for which the TGI in test [2] was 86.1 µM; in test [3] it was 37.5 µM; in test [4] it was greater than 100 µM; in [5] it was greater than 100 µM; in test [6], greater than 100 µM; in test [7], greater than 100 µM. The compound further returned a TGI in test [8] greater than 100 µM.

With `O=C(N/C(=C\c1ccc(/C=C(\NC(=O)c2ccccc2)c2nc3c(O)nc(S)nc3[nH]2)cc1)c1nc2c(O)nc(S)nc2[nH]1)c1ccccc1`, the TGI in test [1], in test [2], in test [3], in test [4], in test [5] and in test [6] was greater than 100 µM each time. The TGI in [7] and in test [8] was greater than 100 µM each time.

On to `CC1=C2C=CC(=O)C[C@@]2(C)CCC1`, for which the TGI in test [1], in test [2], in test [9], in test [3], in [4] and in [5] was greater than 100 µM throughout. The TGI in test [6], in [7] and in [8] was greater than 100 µM each time.

As to `S=C(SSC(=S)N1CCCCC1)N1CCCCC1`, the GI50 was 18 µM in test [2]; 12.4 µM in test [9]; 14.3 µM in test [3]; 17.4 µM in test [4]; 40.1 µM in test [5]; 25.1 µM in test [6]. Besides, the GI50 in test [7] is 51 µM; in test [8] it was 22.9 µM. The TGI is greater than 100 µM in test [2]; 51.3 µM in [9]; 29 µM in test [3]; 41.6 µM in test [4]; greater than 100 µM in [5]; 67.8 µM in test [6]. Besides, the TGI in test [7] is greater than 100 µM; in test [8], 82.2 µM.

Take `CCN(CC)c1ccc(C2N3CCCCC3[C@@H]3c4[nH]c5ccccc5c4CCN23)cc1` (stereo not given in full): the TGI was 28.2 µM in [1]; greater than 100 µM in test [2]; 30.8 µM in test [9]; 36.3 µM in test [3]; 69 µM in test [4]; greater than 100 µM in test [5]. The TGI in [7] was greater than 100 µM; in test [8], 86.1 µM.

For `Cc1cc(Br)ccc1N=Nc1c(C)nn(-c2ccccc2)c1-c1ccccc1`, the TGI in [1], in test [2], in [9], in [3], in [4] and in test [5] was greater than 100 µM each time. Besides, the TGI in [6], in test [7] and in test [8] was greater than 100 µM throughout.

For `CC(=O)CC(=O)Nc1ccccc1C(F)(F)F`, the TGI in test [1], in [2], in test [9], in test [4], in test [6] and in [7] was greater than 100 µM each time. In test [8], this compound registered a TGI greater than 100 µM.

Turning to `CC(=O)[CH-]C(=O)c1ccccc1.CC(=O)[CH-]C(=O)c1ccccc1.CC(=O)[CH-]C(=O)c1ccccc1.[Ga+3]`, the GI50 is 24.7 µM in test [1]; 30.8 µM in test [2]; 11.8 µM in [9]; 20.7 µM in test [3]; 11.6 µM in test [4]; 23.3 µM in [5]. Also, the GI50 in test [6] was 10.8 µM; in [7], 39.1 µM; in test [8], 24 µM. Moreover, the TGI was 45.6 µM in [1]; 80 µM in [2]; 36.1 µM in test [9]; 39.1 µM in test [3]; 26.9 µM in test [4]; 47.5 µM in test [5]. Also, the TGI in [6] was 23.6 µM; in test [7] it was greater than 100 µM; in [8], 68.6 µM.
